Reference: US6956055B2, “Substituted γ-lactone compounds as NMDA-antagonists” (Grunenthal GmbH, priority 2001, dated 2005)

Biological target: T1, glycine-binding site of the NMDA receptor channel (Rattus norvegicus, UniProt P35439)
T1 construct: from tissue; host or cells: rat brain cortex and hippocampus membrane homogenate (male Wistar rats, Charles River)
Assay: Receptor binding test, displacement of (3H)-MDL 105.519 on rat brain membrane homogenates
Conditions: rat cortex and hippocampus membrane homogenate; for inhibition at 10 µM: (3H)-MDL 105.519; for Ki: 1 nmol/l (3H)-MDL 105.519, IC50 converted using Cheng-Prusoff equation
Description: The investigations for determining the affinity of the γ-lactone compounds of the general formula I according to the invention for the glycine-binding site of the NMDA receptor channel were performed on brain membrane homogenates (homogenate of cortex and hippocampus area from the brain of male rats, Wistar strain, Charles River, WIGA GmbH, Sulzbach, Germany), as described in B. M. Baron et al., Journal of Pharmacology and Experimental Therapeutics, vol. 279, pages 62-68, 1996. The corresponding literature description is hereby introduced as a reference and is deemed to be part of the disclosure.
To this end, the cortex and hippocampus were dissected out of freshly harvested rat brains and homogenised with ice cooling in 5 mmol/l of TRIS-acetate buffer, 0.32 mol/l of sucrose, pH 7.4 (10 ml/g fresh weight) using a Potter homogeniser (Braun, Melsungen, Germany, 10 piston strokes at 500 revolutions per minute (rpm)) and then centrifuged for 10 minutes at 1,000 g and 4° C. The first supernatant was collected and the sediment again homogenised with ice cooling with 5 mmol/l of TRIS-acetate buffer, 0,32 mol/l of sucrose, pH 7.4 (5 ml/g of original fresh weight of rat cerebral cortex and hippocampus) with the Potter homogeniser (10 piston strokes at 500 rpm) and centrifuged for 10 minutes at 1,000 g and 4° C. The resultant supernatant was combined with the supernatant from the first centrifugation and centrifuged at 17,000 g for 20 minutes at 4° C. The supernatant after this centrifugation was discarded and the membrane sediment was resuspended with 5 mmol/l of TRIS-acetate buffer, pH 8.0 (20 ml/g of original fresh weight) and homogenised with 10 piston strokes at 500 rpm.
The membrane homogenate was then incubated for 1 hour at 4° C. and centrifuged for 30 minutes at 50,000 g and 4° C. The supernatant was discarded and the centrifuge tubes containing the membrane sediment were sealed with Parafilm and frozen for 24 hours at −20° C. On the following day, the membrane sediment was thawed and resuspended with ice-cold 5 mmol/l TRIS-acetate buffer, 0,1% saponin (wt./vol.), pH 7.0 (10 ml/g of original fresh weight) and homogenised with 10 piston strokes at 500 rpm and then centrifuged for 20 minutes at 50,000 g and 4° C. The resultant supernatant was discarded and the sediment resuspended in a small volume with 5 mmol/l of TRIS-acetate buffer, pH 7.0 (approx. 2 ml/g of original fresh weight) and again homogenised with 10 piston strokes at 500 rpm. After determination of the protein content, the membrane homogenate was adjusted with 5 mmol/l TRIS-acetate buffer, pH 7.0, to a protein concentration of 10 mg of protein/ml and frozen in aliquots until used for testing.
The receptor binding test was performed by thawing aliquots, diluting them 1:10 with 5 mmol/l TRIS-acetate buffer, pH 7.0, homogenising them with ice-cooling with 10 piston strokes at 500 rpm with the Potter homogeniser and centrifuging them for 60 minutes at 55,000 g at 4° C. The supernatant was decanted and the membrane sediment adjusted with ice-cold 50 mmol/l TRIS-acetate buffer, pH 7.0, to a protein concentration of 1 mg/ml and again homogenised with 10 piston strokes at 500 rpm and kept in suspension in an ice bath with stirring on a magnetic stirrer. This membrane homogenate was used in the receptor binding test in a quantity of 100 μl per 1 ml batch (0.1 mg of protein/ml in the final batch).
In the binding test, 50 mmol/l TRIS-acetate buffer pH 7.0 was used as the buffer and 1 nmol/l of (^3H)-MDL 105.519 was used as the radioactive ligand, as described in the above-stated literature reference by B. M. Baron et al. The level of non-specific binding was determined in the presence of 1 mmol/l of glycine.
In further batches, the compounds of the general formula I according to the invention were added in concentration series and the displacement of the radioactive ligand from its specific binding at the glycine-binding site of the NMDA receptor channel was determined. […]

| Structure (SMILES) | inhibition at 10 µM [%] | Ki [nM] |
| --- | --- | --- |
| CC1(c2ccccc2)CC(Nc2cc(Cl)cc(Cl)c2)C(=O)O1 (stereo not shown) [Example 12, 3-(3,5-Dichloro-phenylamino)-5-methyl-5-phenyl-dihydro-furan-2-one] | 80 | 800 |
| CC1(c2ccc(F)cc2)CC(Nc2cc(Cl)cc(Cl)c2)C(=O)O1 (stereo not shown) [Example 13, 3-(3,5-Dichloro-phenylamino)-5-(4-fluoro-phenyl)-5-methyl-dihydro-furan-2-one] | 70 | 800 |
| CC1(c2ccc(Cl)cc2)CC(Nc2cc(Cl)cc(Cl)c2)C(=O)O1 (stereo not shown) [Example 25, 5-(4-Chloro-phenyl)-3-(3,5-dichloro-phenylamino)-5-methyl-dihydro-furan-2-one] | 71 | 1300 |
| CCCCC1(c2ccccc2)CC(Nc2cc(Cl)cc(Cl)c2)C(=O)O1 (stereo not shown) [Example 108, 5-n-Butyl-3-(3,5-dichlorophenylamino)-5-phenyl-dihydrofuran-2-one] | 62 |  |
